Measurements: patent US20220088102A1, “CROTON LECHLERI COMPOSITIONS AND THEIR USE IN THE TREATMENT OF CYSTIC FIBROSIS” (priority 2020, published 2022)
In brackets after ≈: the same amount, converted by molar mass. Where two headings read alike, the source gives them in different places.

How the values were obtained:
[1] = Log P analysis (partition coefficient, water and n-Octanol)
Excerpt: (§1) All reference to skin includes references to epithelial skin and epithelial layer of the lungs, nose, mouth and throat. IVPT is a flux measurement that is common to those skilled in the art to evaluate topical drugs inclusive to topical delivery to the lungs, nose, mouth and throat.
Log P is an assessment of a molecule's lipophilicity, indicating how readily an analyte can partition between aqueous and organic phases. […] To reach high systemic levels, a topical drug must be permeable enough, which is defined as lipophilic enough, to partition into the lipid bilayer of the skin, but, not so lipophilic that once it is in the skin bilayer it will stay sequestered there. Lipophilicity plays a major role in determining where drugs are distributed within the body after absorption into tissues and, as a consequence, in how rapidly they are metabolized and excreted.
The Log P value is a constant defined in the following manner: Log P=log 10 (Partition Coefficient) Partition Coefficient, P=[organic]/[aqueous] Where [ ] indicates the concentration of solute in the organic and aqueous partition. […] Although log P is a constant, its value is dependent on the choice of the organic partitioning solvent and, to a lesser degree, on the conditions of measurement.

[2] = In vitro Permeation Test (IVPT), Franz diffusion cell, Strat-M membranes
Excerpt: as §1

DNA of the cells = conditions: Chen 1994, cited from earlier work
[3] = test system: methicillin-susceptible Staphylococcus aureus (MSSA) strains; assay: In vitro MIC and MBC assay, strain panel (Example 3); format: cell-based; conditions: for MIC (% relative to amount in AB-101): 50% = 10 μg/mL taspine
Excerpt: (§2) Measures included the minimum inhibitory concentration (MIC) which is the lowest concentration of AB-101 that prevents visible growth of the bacterium or pathogen, and minimum bactericidal concentration (MBC) which is the lowest concentration of an antibacterial agent required to kill a bacterium.

[4] = test system: methicillin-resistant Staphylococcus aureus (MRSA) strains; assay: as above; format: cell-based; conditions: for MIC: MRSA (Table 13); for MBC (% relative to amount in AB-101) / MIC (% relative to amount in AB-101): MRSA; for MIC (% relative to amount in AB-101): 50% = 10 μg/mL taspine
Excerpt: as §2

[5] = component of AB-101, 100%, Batch 0
[6] = component of AB-101, 100%, Batch 1
[7] = component of AB-101, 100%, Batch 2
[8] = component of AB-101, 100%, Batch X
[9] = component of AB-101 Lyophilized & Resuspended, Batch 0
[10] = component of AB-101 Lyophilized & Resuspended, Batch 1
[11] = component of AB-101 Lyophilized & Resuspended, Batch 2
[12] = component of AB-101 Lyophilized & Resuspended, Batch X
[13] = strain ATCC 29213, QC control (Table 13)
[14] = strain CDC 461, MupirocinS, MSSA (Table 13)
[15] = strain CDC 463, MupirocinS, MSSA (Table 13)
[16] = highest concentration tested 50% relative to AB-101 = 10 μg/mL taspine
[17] = strain 1674606, MupirocinR, MSSA
[18] = strain 1674608, MupirocinR, MSSA
[19] = strain CDC 461, MupirocinS, MSSA
[20] = strain CDC 462, MupirocinS, MSSA
[21] = strain CDC 463, MupirocinS, MSSA
[22] = strain CDC 464, MupirocinS, MSSA
[23] = strain CDC 484, MupirocinS, MSSA
[24] = strain CDC 485, MupirocinS, MSSA

Oc1cc(O)c2c(c1)O[C@H](c1cc(O)c(O)c(O)c1)[C@H](O)C2 [Epigallocatcchin]
LogP [1, 5]: −0.79
LogP [1, 6]: 0.27
LogP [1, 7]: 0.86
LogP [1, 8]: 1.82
LogP [1, 9]: 1.20
LogP [1, 10]: −0.11
LogP [1, 11]: −1.71
LogP [1, 12]: −0.55

Oc1cc(O)c2c(c1)O[C@H](c1cc(O)c(O)c(O)c1)[C@H](O)C2 [Epigallocatechin, epigallocatechin]
Flux (J) ([2]; component permeating from AB-101 100% Lot 1): 503.51 ug/cm^2/hr
Flux (J) ([2]; component permeating from AB-101 100% Lot X): 57.09 ug/cm^2/hr
effect on cell proliferation (DNA of the cells): slightly stimulating to cell proliferation

COc1cccc(OC)c1C(=O)N[C@@H]1C(=O)N2[C@@H]1SC(C)(C)[C@@H]2C(=O)O [Methicillin]
MIC ([3]; strain 1674606, MupirocinR, MSSA (Table 13)): 0.002 to 0.008 ng/mL
MIC ([3]; strain 1674608, MupirocinR, MSSA (Table 13)): 0.002 to 0.004 ng/mL
MIC [3, 13]: 0.001 to 0.002 ng/mL
MIC [3, 14]: 0.004 to 0.008 ng/mL
MIC [3, 15]: 0.008 to 0.016 ng/mL
MIC ([3]; strain CDC 485, MupirocinS, MSSA (Table 13)): 0.002 to 0.004 ng/mL
MIC ([4]; strain CDC 480, MupirocinS): 0.032 to 0.064 ng/mL
MIC ([4]; strain CDC 481, MupirocinS): 0.016 to 0.032 ng/mL
MIC ([4]; strain CDC 482, MupirocinS): 0.008 to 0.032 ng/mL

C/C(=C\C(=O)OCCCCCCCCC(=O)O)C[C@@H]1OC[C@H](C[C@@H]2O[C@H]2[C@@H](C)[C@H](C)O)[C@@H](O)[C@H]1O [Mupirocin]
MIC ([3]; Staphylococcus aureus, MSSA, strain 1674606, MupirocinR, MSSA, read-out: MIC): > 256000 ng/mL
MIC ([3]; Staphylococcus aureus, MSSA, strain 1674608, MupirocinR, MSSA, read-out: MIC): > 256000 ng/mL
MIC ([3]; Staphylococcus aureus, MSSA, strain CDC 463, MupirocinS, MSSA, read-out: MIC): 250 to 500 ng/mL (≈ 499 to 999 nM)
MIC ([3]; Staphylococcus aureus, MSSA, strain CDC 484, MupirocinS, MSSA, read-out: MIC): ≤ 250 ng/mL
MIC ([3]; Staphylococcus aureus, MSSA, strain CDC 485, MupirocinS, MSSA, read-out: MIC): ≤ 250 ng/mL
MIC [3, 13]: ≤0.00025 to 0.0005 ng/mL
MIC [3, 14]: ≤0.00025 to 0.001 ng/mL
MIC [3, 15]: ≤0.00025 to 0.0005 ng/mL
MIC ([4]; strain CDC 227, MupirocinS): ≤0.00025 to 0.0005 ng/mL

COc1ccc2c(=O)oc3c(OC)cc(CCN(C)C)c4c(=O)oc1c2c34 [Taspin]
LogP [1, 5]: −1.15
LogP [1, 6]: −1.76
LogP [1, 7]: −0.90
LogP [1, 8]: −0.31
LogP [1, 9]: −1.06
LogP [1, 10]: −0.94
LogP [1, 11]: −1.71
LogP [1, 12]: −0.07

COc1ccc2c(=O)oc3c(OC)cc(CCN(C)C)c4c(=O)oc1c2c34 [Taspine, taspine]
activity as evaluated by this invitro test method (MIC, MBC) [3, 16]: does not have activity
MBC (% relative to amount in AB-101) [3, 17]: >50 % relative to amount in AB-101
MIC (% relative to amount in AB-101) [3, 17]: >50 % relative to amount in AB-101
MBC (% relative to amount in AB-101) [3, 18]: >50 % relative to amount in AB-101
MIC (% relative to amount in AB-101) [3, 18]: >50 % relative to amount in AB-101
MBC (% relative to amount in AB-101) ([3]; strain ATCC 29213, QC control): >50 % relative to amount in AB-101
MIC (% relative to amount in AB-101) ([3]; strain ATCC 29213, QC control): >50 % relative to amount in AB-101
MBC (% relative to amount in AB-101) [3, 19]: >50 % relative to amount in AB-101
MIC (% relative to amount in AB-101) [3, 19]: >50 % relative to amount in AB-101
MBC (% relative to amount in AB-101) [3, 20]: >50 % relative to amount in AB-101
MIC (% relative to amount in AB-101) [3, 20]: >50 % relative to amount in AB-101
MBC (% relative to amount in AB-101) [3, 21]: >50 % relative to amount in AB-101
MIC (% relative to amount in AB-101) [3, 21]: >50 % relative to amount in AB-101
MBC (% relative to amount in AB-101) [3, 22]: >50 % relative to amount in AB-101
MIC (% relative to amount in AB-101) [3, 22]: >50 % relative to amount in AB-101
MBC (% relative to amount in AB-101) [3, 23]: >50 % relative to amount in AB-101
MIC (% relative to amount in AB-101) [3, 23]: >50 % relative to amount in AB-101
MBC (% relative to amount in AB-101) [3, 24]: >50 % relative to amount in AB-101
MIC (% relative to amount in AB-101) [3, 24]: >50 % relative to amount in AB-101
activity as evaluated by this invitro test method (MIC, MBC) [4, 16]: does not have activity
MBC (% relative to amount in AB-101) ([4]; strain 1674607, MupirocinR): >50 % relative to amount in AB-101
MIC (% relative to amount in AB-101) ([4]; strain 1674607, MupirocinR): >50 % relative to amount in AB-101
MBC (% relative to amount in AB-101) ([4]; strain 1674611, MupirocinR): >50 % relative to amount in AB-101
MIC (% relative to amount in AB-101) ([4]; strain 1674611, MupirocinR): >50 % relative to amount in AB-101
MBC (% relative to amount in AB-101) ([4]; strain CDC 218, MupirocinR): >50 % relative to amount in AB-101
MIC (% relative to amount in AB-101) ([4]; strain CDC 218, MupirocinR): >50 % relative to amount in AB-101
MBC (% relative to amount in AB-101) ([4]; strain CDC 220, MupirocinS): >50 % relative to amount in AB-101
MIC (% relative to amount in AB-101) ([4]; strain CDC 220, MupirocinS): >50 % relative to amount in AB-101
MBC (% relative to amount in AB-101) ([4]; strain CDC 224, MupirocinR): >50 % relative to amount in AB-101
MIC (% relative to amount in AB-101) ([4]; strain CDC 224, MupirocinR): >50 % relative to amount in AB-101
MBC (% relative to amount in AB-101) ([4]; strain CDC 227, MupirocinS): >50 % relative to amount in AB-101
MIC (% relative to amount in AB-101) ([4]; strain CDC 227, MupirocinS): >50 % relative to amount in AB-101
MBC (% relative to amount in AB-101) ([4]; strain CDC 228, MupirocinR): >50 % relative to amount in AB-101
MIC (% relative to amount in AB-101) ([4]; strain CDC 228, MupirocinR): >50 % relative to amount in AB-101
MBC (% relative to amount in AB-101) ([4]; strain CDC 480, MupirocinS): >50 % relative to amount in AB-101
MIC (% relative to amount in AB-101) ([4]; strain CDC 480, MupirocinS): >50 % relative to amount in AB-101
MBC (% relative to amount in AB-101) ([4]; strain CDC 481, MupirocinS): >50 % relative to amount in AB-101
MIC (% relative to amount in AB-101) ([4]; strain CDC 481, MupirocinS): >50 % relative to amount in AB-101
MBC (% relative to amount in AB-101) ([4]; strain CDC 482, MupirocinS): >50 % relative to amount in AB-101
MIC (% relative to amount in AB-101) ([4]; strain CDC 482, MupirocinS): >50 % relative to amount in AB-101
MBC (% relative to amount in AB-101) ([4]; strain CDC 483, MupirocinS): >50 % relative to amount in AB-101
MIC (% relative to amount in AB-101) ([4]; strain CDC 483, MupirocinS): >50 % relative to amount in AB-101
healing effects (DNA of the cells; in the Ecuadorian sap): showed little healing effects

catechin
effect on cell proliferation (DNA of the cells): showed little effect

epicatechin
effect on cell proliferation (DNA of the cells): showed little effect
